The values that follow come from US20070087346A1, “Orthogonal gene switches” (priority 2003, published 2007).

Residue numbers refer to the chain shown, from its start. Structures can show the parent of a compound that is named as a salt. Where two headings read alike, the source gives them in different places. Where only a bound is given, the exact number is not on record here.

The target of one test is hERβ (Homo sapiens, UniProt Q92731). As to the kind of experiment: binding to full-length hERβ. The note with it: full-length receptor.
For the next test, the target named is T1, hERα (Homo sapiens, UniProt P03372).
T1 construct: relative to the wt LBD and to both α and β full-length ER
T1 sequence (P03372 1-595): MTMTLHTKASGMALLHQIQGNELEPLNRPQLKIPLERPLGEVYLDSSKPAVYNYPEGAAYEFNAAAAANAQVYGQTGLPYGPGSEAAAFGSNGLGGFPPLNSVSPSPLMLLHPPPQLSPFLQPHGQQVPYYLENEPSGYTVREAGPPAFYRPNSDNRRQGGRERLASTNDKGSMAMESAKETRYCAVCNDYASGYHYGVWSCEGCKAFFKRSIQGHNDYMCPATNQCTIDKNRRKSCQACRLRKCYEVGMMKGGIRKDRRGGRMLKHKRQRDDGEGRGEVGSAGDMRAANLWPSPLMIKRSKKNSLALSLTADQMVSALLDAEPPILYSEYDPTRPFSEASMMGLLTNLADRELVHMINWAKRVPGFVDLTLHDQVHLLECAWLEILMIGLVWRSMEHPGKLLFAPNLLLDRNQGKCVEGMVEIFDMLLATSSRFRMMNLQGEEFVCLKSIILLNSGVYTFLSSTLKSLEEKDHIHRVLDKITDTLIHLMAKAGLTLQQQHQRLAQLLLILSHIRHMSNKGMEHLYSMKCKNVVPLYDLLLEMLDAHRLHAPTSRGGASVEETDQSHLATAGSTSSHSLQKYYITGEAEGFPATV
As to the kind of experiment: binding to full-length hERα.

The next test concerns the target T2, GST-ERα wt-LBD (Homo sapiens, UniProt P03372).
T2 construct: made in house; host or cells: E. coli BL21 (CodonPlus DE3-RIL)
T2 sequence (P03372 303-595): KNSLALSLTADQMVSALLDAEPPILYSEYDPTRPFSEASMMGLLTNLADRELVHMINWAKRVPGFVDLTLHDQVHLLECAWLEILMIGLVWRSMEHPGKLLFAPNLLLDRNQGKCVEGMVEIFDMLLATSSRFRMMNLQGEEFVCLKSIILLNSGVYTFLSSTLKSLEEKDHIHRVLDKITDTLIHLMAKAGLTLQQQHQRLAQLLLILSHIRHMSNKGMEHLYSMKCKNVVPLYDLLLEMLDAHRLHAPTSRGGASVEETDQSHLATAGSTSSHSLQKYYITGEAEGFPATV
The test is described as follows: competitive radiometric 3[H]E2 displacement binding assay, wt LBD. On the procedure:
Microplates (Basic Flashplates, NEN) wells were coated for 12 hrs at 4° C. with 100 μl of PBS containing anti-GST antibodies (Amersham) at a concentration of 5 μg/ml. After washing three times with 200 μl of PBS, the background was reduced by saturating with 200 μl of PBS containing 1% BSA for 3 hrs at 4° C. Wells were then washed three times with 200 μl of lysis buffer containing 0.1 M NaCl and 0.2% n-Dodecyl BD-maltoside (assay buffer).
Suitable amounts of crude E. coli supernatants containing the GST-ER LBD proteins (2-10 μl) or of purified polypeptides (8 nM) were bound to the anti-GST antibody-coated wells for 1 hr at 23° C. in 200 μl of the assay buffer with constant agitation. After three more washes with 200 μl of the same buffer, the ligand-binding reaction was set up in 195 μl of assay buffer containing 2 nM-10 nM 3[H]E2 and 5 μl of DMSO or of suitable dilutions of the test compounds in DMSO. Incubation was for 2 hrs at 23° C. with constant shaking, followed by SPA radioactivity measurement using a microplate scintillation and luminescence counter (Top Count NXT, Packard). IC50 values were obtained by multiparameter logistic fitting of the experimental data with the aid of a Kaleidagraph software.

Test [1] concerns MG-LBD variant with Gly521 substituted with Val, Leu, Met, or Arg. As to the kind of experiment: β-Galactosidase transcription assay in yeast, Gly521 substitutions in MG-LBD. The note with it: data not shown. Format: cell-based, human.
Another test addresses T3, HEA-1 (Homo sapiens, UniProt P03372, G521R).
T3 sequence (P03372 303-595 G521R): T2 sequence (P03372 303-595) with G219R
The note with it: cell culture; Roscilli et al., 2002; cited from earlier work.

[2] abbreviates: full-length receptor, read-out: hERα IC50.
[3] abbreviates: 3[H]E2 displacement, read-out: GST-ERα wt-LBD IC50.

Chain of hERβ (Q92731 whole entry): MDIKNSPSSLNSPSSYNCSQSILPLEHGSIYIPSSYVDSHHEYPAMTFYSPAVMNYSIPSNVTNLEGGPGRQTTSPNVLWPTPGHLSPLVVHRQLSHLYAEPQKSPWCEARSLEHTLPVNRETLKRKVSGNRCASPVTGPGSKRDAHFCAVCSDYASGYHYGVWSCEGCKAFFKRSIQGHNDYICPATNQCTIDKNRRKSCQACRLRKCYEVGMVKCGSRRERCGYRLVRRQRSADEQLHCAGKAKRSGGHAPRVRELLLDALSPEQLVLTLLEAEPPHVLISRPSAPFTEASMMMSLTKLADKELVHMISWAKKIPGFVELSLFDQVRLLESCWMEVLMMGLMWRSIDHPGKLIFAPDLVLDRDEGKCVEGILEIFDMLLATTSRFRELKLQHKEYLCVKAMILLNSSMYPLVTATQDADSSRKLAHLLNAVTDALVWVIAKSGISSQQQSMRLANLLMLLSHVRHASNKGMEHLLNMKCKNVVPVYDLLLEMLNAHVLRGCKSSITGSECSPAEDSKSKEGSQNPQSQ

In general, IC50 refers to the concentration needed to halve the response being measured. `O=C1CCC2(Cc3ccccc3)Cc3c(ccc4[nH]ncc34)C2=C1c1ccc(OCCN2CCCCC2)cc1` (stereo not shown) [CMP9, 9a-benzyl-6-{4-[2-(1-pipe-ridinyl)eth-oxy]phenyl}-8,9,9a,10-tetra-hydroindeno[2,1-e]in-dazol-7(3H)-one hydrotrifluoroacetae salt] came in with a concentration for half-maximal inhibition (IC50) at hERβ of 125 nM.
On to `CC1=C2c3ccc4[nH]nnc4c3CC2(Cc2ccccc2C(F)(F)F)CCC1=O` (stereo not shown) [CMP34, 9a-[2-(tri-fluoromethyl)benzyl]-6-meth-yl-8,9,9a,10-tetra-hydrofluoreno[1,2-d][1,2,3]tri-azol-7(3H)-one], for which the IC50 at hERα (setting [2]) and on hERβ was > 10000 nM in each case.
Turning to `O=C1CCC2(Cc3ccccc3)Cc3cc(O)ccc3C2=C1c1ccncc1` (stereo not shown) [CMP15, 9a-benzyl-7-hydroxy-4-py-ridin-4-yl-1,2,9,9a-tetra-hydro-3H-fluor-en-3-one], the figures for the 50% inhibitory concentration (IC50) on GST-ERα wt-LBD (setting [3]), on hERα (setting [2]) and on hERβ were 725 nM, 1180 nM and 558 nM, respectively.
For `CC1=C2c3cc(Br)c(O)c(Br)c3CC2(Cc2ccccc2)CCC1=O` (stereo not shown) [CMP24, 9a-benzyl-6,8-di-bromo-7-hydroxy-4-meth-yl-1,2,9,9a-tetra-hydro-3%{H}-fluor-en-3-one], the IC50 at GST-ERα wt-LBD (setting [3]) was > 180000 nM.
Take `O=C1CCC2(Cc3ccccc3)Cc3cc(O)ccc3C2=C1c1ccc(O)cc1` (stereo not shown) [CMP6, 9a-benzyl-7-hydroxy-4-(4-hy-droxyphenyl)-1,2,9,9a-tetra-hydro-3H-flour-en-3-one]: the results for the IC50 at GST-ERα wt-LBD, on hERα and on hERβ were 1370 nM, 223 nM and 96 nM, respectively.
In the case of `O=C1CCC2(Cc3ccccc3)Cc3cc(O)ccc3C2=C1c1cccnc1` (stereo not shown) [CMP14, 9a-benzyl-7-hydroxy-4-py-ridin-3-yl-1,2,9,9a-tetra-hydro-3H-fluor-en-3-one], the half-maximal inhibitory concentration (IC50) at GST-ERα wt-LBD (setting [3]) was > 3600 nM.
Take `CC1=C2c3ccc4[nH]ncc4c3CC2(Cc2cccc(F)c2)CCC1=O` (stereo not shown) [CMP26, 6-methyl-9a-(3-fluoro-benzyl)-8,9,9a,10-tetra-hydroindeno[2,1-e]in-dazol-7(3H)-one]: the half-inhibitory concentration (IC50) on hERβ turned out to be 1070 nM.
Take `O=C1CCC2(Cc3ccc(Cl)cc3)Cc3cc(O)ccc3C2=C1c1ccc(OCCN2CCCCC2)cc1` (stereo not shown) [CMP8, 9a-(4-chlorobenzyl)-7-hy-droxy-4-{4-[2-(1-pipe-ridinyl)-eth-oxy]phenyl}-1,2,9,9a-tetra-hydro-3H-fluor-en-3-one]: the IC50 is 4440 nM on GST-ERα wt-LBD (setting [3]), 1080 nM at hERα (setting [2]) and 2230 nM at hERβ.
With `CC1=C2c3ccc(O)cc3CC2(Cc2ccccc2)CCC1=O` (stereo not shown) [CMP4, 9a-benzyl-7-hy-droxy-4-methyl-1,2,9,9a-tetra-hydro-3H-fluor-en-3-one], the IC50 on GST-ERα wt-LBD (setting [3]) came out at 2320 nM; at hERα, 1470 nM; on hERβ, 506 nM. Besides, in test [1], the “response (trans-activation in yeast)” value is “dramatic loss of response”.
`CC1=C2c3ccc4nn[nH]c4c3CC2(Cc2ccccc2)CCC1=O` (stereo not shown) [CMP30, 9a-benzyl-6-methyl-8,9,9a,10-tetra-hydrofluoreno[1,2-d][1,2,3]tri-azol-7(3H)-one] showed an IC50 on hERβ of 4190 nM.
Still for that read-out and setting: the figure for `CC1=C2c3ccc4[nH]ncc4c3CC2(Cc2ccc(F)cc2)CCC1=O` (stereo not shown) [CMP25, 6-methyl-9a-(4-fluoro-benzyl)-8,9,9a,10-tetra-hydroindeno[2,1-e]in-dazol-7(3H)-one] is 997 nM.
In the case of 4 hydroxytamoxifen [4-OH Tam], the drug-dependent transgene induction entry on HEA-1 is recorded as “up to hundred-fold”.
In the case of `CN(C)CCOc1ccc(C2=C3c4ccc(O)cc4CC3(Cc3ccccc3)CCC2=O)cc1` (stereo not shown) [CMP12, 9a-benzyl-4-{4-[2-(di-methylamino)ethoxy]phe-nyl}-7-hydroxy-1,2,9,9a-tetra-hydro-3H-fluor-en-3-one], the IC50 at GST-ERα wt-LBD (setting [3]) came out at 4170 nM.
Same read-out and setting: the figure for `CC1=C2c3ccc(O)cc3CC2(Cc2ccc(Cl)cc2)CCC1=O` (stereo not shown) [CMP17, 9a-(4-chlorobenzyl)-7-hy-droxy-4-methyl-1,2,9,9a-tetra-hydro-3%{H}-fluor-en-3-one] is 6830 nM.
`CC1=C2c3ccc4[nH]ncc4c3CC2(Cc2ccccc2)CCC1=O` (stereo not shown) [CMP5, 6-methyl-9a-ben-zyl-8,9,9a,10-tetra-hydroindeno[2,1-e]in-dazol-7(3H)-one]: the IC50 on GST-ERα wt-LBD (setting [3]) is > 10000 nM; at hERα (setting [2]) it was > 10000 nM; at hERβ, 1250 nM.
Take `CCCCC1=C2c3ccc(O)cc3CC2(Cc2ccccc2)CCC1=O` (stereo not shown) [CMP7, 9a-benzyl-4-butyl-7-hy-droxy-1,2,9,9a-tetra-hydro-3H-fluor-en-3-one]: the half-maximal inhibitory concentration (IC50) came out at 1310 nM on GST-ERα wt-LBD (setting [3]), 259 nM at hERα (setting [2]) and 307 nM on hERβ.
For the compound `O=C1CCC2(Cc3ccccc3)Cc3cc(O)ccc3C2=C1c1ccc(OCCN2CCOCC2)cc1` (stereo not shown) [CMP11, 9a-benzyl-7-hy-droxy-4-{4-[2-(4-mor-pholinyl)-eth-oxy]phenyl}-1,2,9,9a-tetra-hydro-3H-fluor-en-3-one], the half-maximal inhibitory concentration (IC50) at GST-ERα wt-LBD amounted to 2310 nM.
For `O=C1CCC2(Cc3ccccc3)Cc3cc(O)ccc3C2=C1c1ccc(OCCN2CCCCC2)cc1` (stereo not shown) [CMP10, 9a-benzyl-7-hy-droxy-4-{4-[2-(1-pipe-ridinyl)-eth-oxy]phenyl}-1,2,9,9a-tetra-hydro-3H-fluor-en-3-one], the IC50 at GST-ERα wt-LBD was 1270 nM; at hERα it was 375 nM; on hERβ it was 184 nM.
Consider `O=C1CCC2(Cc3ccccc3)Cc3cc(O)ccc3C2=C1c1ccccn1` (stereo not shown) [CMP13, 9a-benzyl-7-hydroxy-4-py-ridin-2-yl-1,2,9,9a-tetra-hydro-3H-fluor-en-3-one], for which the half-maximal inhibitory concentration (IC50) on GST-ERα wt-LBD (setting [3]) was > 3600 nM.
As to `CC1=C2c3ccc4[nH]ncc4c3CC2(Cc2ccccc2F)CCC1=O` (stereo not shown) [CMP27, 6-methyl-9a-(2-fluoro-benzyl)-8,9,9a,10-tetra-hydroindeno[2,1-e]in-dazol-7(3H)-one], the half-maximal inhibitory concentration (IC50) on hERα (setting [2]) came to 4300 nM; on hERβ it was 529 nM.
